Source: patent publication US20090149461A1, “METHOD OF TREATING CANCER” (ABBOTT LABORATORIES, priority 2007, published 2009)
Where two headings read alike, the source gives them in different places.

Key:
[1] = molecular target: T1, Bcl-w (Homo sapiens, UniProt Q92843); assay: binding affinity to anti-apoptotic Bcl-2 family proteins
T1 sequence (Q92843 1-193): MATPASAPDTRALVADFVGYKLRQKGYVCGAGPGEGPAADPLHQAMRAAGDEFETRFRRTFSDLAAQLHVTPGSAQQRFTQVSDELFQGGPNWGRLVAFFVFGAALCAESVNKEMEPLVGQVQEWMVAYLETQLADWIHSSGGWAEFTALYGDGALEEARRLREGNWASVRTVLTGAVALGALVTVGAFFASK

[2] = molecular target: T2, Bcl-B (Homo sapiens, UniProt Q9HD36); assay: as above
T2 sequence (Q9HD36 1-204): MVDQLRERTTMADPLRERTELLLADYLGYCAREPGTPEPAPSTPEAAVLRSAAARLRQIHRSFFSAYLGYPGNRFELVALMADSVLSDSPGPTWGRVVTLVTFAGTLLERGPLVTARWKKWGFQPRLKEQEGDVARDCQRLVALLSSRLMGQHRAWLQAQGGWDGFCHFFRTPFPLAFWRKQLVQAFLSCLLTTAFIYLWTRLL

[3] = tested on: human tumor cell lines derived from small cell lung carcinomas and lymphoid malignancies; assay: mechanism-based cytotoxicity in tumor cell lines
[4] = tested on: 22 cell lines consisting of multiple leukemia and lymphoma types (B-cell and T-cell malignancies); assay: single agent activity in leukemia and lymphoma cell line panel; assay type: cell-based
[5] = tested on: DoHH-2; assay: flank model of diffuse large B-cell lymphoma, monotherapy; assay type: in vivo; conditions: DoHH-2 flank model; 100 mg/kg/day p.o., q.d.×17 days
Text: (§1) Both of these tumors are known to express high levels of Bcl-2 due to the t(14;18) translocation. The WSU-DLCL2 line was isolated from a patient whose disease progressed following chemotherapy, radiation therapy and bone marrow transplantation and is recognized as a model of therapy-resistant lymphoma.

[6] = tested on: WSU-DLCL2; assay: as above; assay type: in vivo; conditions: 100 mg/kg/day p.o., q.d.×17 days
Text: as §1

[7] = nonclinical pharmacokinetic profile in multiple animal models; assay type: in vivo; conditions: all species studied
[8] = oral bioavailability from prototype formulations in dog; assay type: in vivo; conditions: beagle, plasma, prototype solid dispersion and lipid-based formulations
Text: (§2) The oral bioavailability of the compound is formulation dependent, with values of 30% to 50% obtained from prototype solid dispersion and lipid-based formulations in dog. […] Elimination of total radioactivity is rapid, with 90% of the dose recovered within 24-hours post-dose.

[9] = (14C) ABT-263 absorption and elimination in rat; assay type: in vivo
Text: as §2

[10] = simulation of q.d. dosing in humans (exposure and platelets)
Text: Based on preclinical evidence, potential treatment-related side effects may include drug interactions, lymphopenia, testicular effects, and thrombocytopenia. […] Under these conditions, platelet values are expected to be ′25 K/.iL at steady state.

[11] = tested on: cultured human peripheral blood lymphocytes; assay: chromosomal aberration assay; assay type: cell-based; conditions: with or without metabolic activation
[12] = in vivo rat micronucleus assay
[13] = dog toxicity studies; assay type: in vivo
Text: Target organs in the dog included lymphoid tissues (spleen, Peyer's patch, lymph nodes, and thymus (a 2-week study)), male reproductive tissues (testes and epididymides), and pancreas. The microscopic changes observed in these target organs included decreased size of follicles, cortex, and/or germinal centers in lymphoid tissue; decreased cellularity in mantle zone, germinal centers, and/or interfollicular areas of lymphoid tissue; spermatogonia, spermatocyte and/or spermatid (round and elongated) depletion; and pancreatic acinar cell single cell necrosis. With the exception of pancreatic acinar cell single cell necrosis, these microscopic changes were also noted following a 4-week dose-free recovery period.

[14] = tested on: platelets; assay: decrease in circulating platelets in animals; assay type: in vivo, mouse, rat and dog
Text: Thrombocytopenia was seen after administration of a single dose and is present at the time of Cmax.

[15] = Phase 1/2a study pharmacokinetics; assay type: in vivo, human; conditions: for AUC: human
Procedure: There was no drug administered for the 72 hours following the first dose of the first cycle (Day-3) in order to assess the single-dose pharmacokinetics and toxicity.
Additional blood samples were collected at 0 hour (pre dose) on Day 14, Cycle 2 through Cycle 6. Sufficient blood were collected to provide approximately 1 mL plasma from each sample. A total of 27 blood samples (approximately 81 mL) were collected per subject for pharmacokinetic analysis during Cycle 1 and one additional blood sample per subject per cycle in the following cycles (up to Cycle 6).
The plasma samples were transferred using plastic pipettes into screw-capped polypropylene tubes labeled with the drug number name, type of sample (plasma), the protocol number, the subject number, the study cycle and day and the planned time of sampling relative to dosing. The plasma samples were frozen at −20° C. or colder within 1 hour after collection and will remain frozen until shipped.
Additional parameters may be calculated if useful in the interpretation of the data.
Subjects self-administered ABT-263 orally once daily (QD). Each dose were taken with approximately 240 mL of water. On days that pre-dose pharmacokinetic sampling is required (Cycle 1 Day-3, Cycle 1 Day 1, Cycle 1 Day 2, Cycle 1 Day 14, Cycle 2 Day 14, Cycle 3 Day 14, Cycle 4 Day 14, Cycle 5 Day 14 and Cycle 6 Day 14 in Phase 1 and on Cycle 1 Day 14 in Phase 2a) dosing will occur in the morning in the clinic to facilitate pharmacokinetic sampling.

[16] = rat, in vivo, 4 weeks
[17] = rat toxicity studies
[18] = tested on: Salmonella-Escherichia coli; assay: Salmonella-Escherichia coli bacterial mutation assay (Ames); conditions: with or without metabolic activation

Structure (SMILES): CC1(C)CCC(c2ccc(Cl)cc2)=C(CN2CCN(c3ccc(C(=O)NS(=O)(=O)c4ccc(N[C@H](CCN5CCOCC5)CSc5ccccc5)c(S(=O)(=O)C(F)(F)F)c4)cc3)CC2)C1 [ABT-263, N-(4-(4-((2-(4-chlorophenyl)-5,5-dimethyl-1-cyclohex-1-en-1-yl)methyl)piperazin-1-yl)benzoyl)-4-(((1R)-3-(morpholin-4-yl)-1-((phenylsulfanyl)methyl)propyl)amino)-3-((trifluoromethyl)sulfonyl)benzenesulfonamide]
- Ki [1]: ≤ 1 nM
- Ki [2]: ≤ 1 nM
- EC50 [3]: ≤ 1000 nM
- cell lines with potent single agent activity [4]: 10 of 22
- monotherapy activity [5]: significant monotherapy activity
- monotherapy activity [6]: significant monotherapy activity
- half-life ([7]; CD-1 (mouse), Sprague-Dawley (rat), beagle (dog), mouse, rat, dog, cynomolgus monkey, plasma, read-out: terminal half-lives): 4.6 to 8.4 h
- plasma clearance [7]: very low
- volumes of distribution [7]: low
- bioavailability [8]: 30 to 50%
- absorption ([9]; (14C) ABT-263): slowly absorbed
- parent drug in systemic circulation ([9]; (14C) ABT-263): major component
- dose recovered (total radioactivity) ([9]; within 24-hours post-dose): 90%
- expected biologically effective plasma concentration in humans [10]: 6.7 .iM
- chromosome aberrations in human lymphocytes in vitro [11]: did not induce chromosome aberrations
- clastogenicity in rat micronucleus assay [12]: not clastogenic
- bleeding time ([13]; 2-week toxicity study, dogs with low platelet counts (<50 K/μL)): prolonged bleeding time
- time to full reversal of platelet effect after treatment ended ([13]; 4-week toxicity study in dogs): less than 7 days
- effect on lymphocytes ([13]; dog): mild decrease
- effect on platelets ([13]; dog): marked decrease
- NOAEL at 4 weeks ([13]; dog, in vivo, 4 weeks of administration to dogs): 1 mg/kg/day
- time for platelet counts to return to normal values ([14]; after a single dose): approximately one week
- duration for which platelet toxicity was tolerated ([14]; rat and dog): up to 28 days
- effect of food on oral absorption ([15]; fasting vs non-fasting): mild positive effect
- Inter-subject variability in exposure ([15]; human subjects): ~40%
- dose proportionality of exposure ([15]; human subjects): dose-proportional
- AUC ([15]; in vivo, preclinical target, read-out: Preclinical target AUC): 53000 to 88000 ng·h/mL
- AUC ([15]; plasma, oral, 225 mg (n=4), read-out: Mean AUC): 47000 ng·h/mL
- AUC ([15]; plasma, oral, 315 mg (n=5), read-out: Mean AUC): 100000 ng·h/mL
- AUC ([15]; plasma, oral, 440 mg (n=3), read-out: Mean AUC): 109000 ng·h/mL
- half-life ([15]; plasma, oral, human subjects): 14 to 20 h
- tolerated dose [16]: 10 mg/kg/day
- no-observed-adverse-effect-level (NOAEL) ([17]; 4-week rat toxicity study): not reached
- effect on liver enzymes (ALT, AST, alkaline phosphatase) ([17]; rat): minimal to mild increases
- effect on lymphocytes ([17]; rat): minimal to moderate decreases
- effect on platelets ([17]; rat): mild to marked decreases
- mutagenicity in the Ames assay [18]: not mutagenic
